PubChem BioAssay AID248 (DTP/NCI, 2004)
Several values for one entry are separate records, joined by “and”; a condition that tells them apart may be missing. Equal values may be shown once. Inconclusive results and toxic doses are left out.

Tested on: L1210 leukemia ip in BDF1 mice, survival T/C
Assay: NCI In Vivo Anticancer Drug Screen. Data for tumor model L1210 Leukemia (intraperitoneal) in B6D2F1 (BDF1) mice
Conditions: endpoint: mean survival time, higher = longer survival
How it was run: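 Value reflects the ratio of survival in compound-treated mice to survival in vehicle-treated controls, with both groups carrying the same transplanted tumor.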

[1] = dose: 100.0 mg/kg/injection, schedule: Q01DX009 (ip), vehicle: saline with Tween-80
[2] = dose: 100.0 mg/kg/injection, schedule: Q04DX002 (ip), vehicle: saline with Tween-80
[3] = dose: 200.0 mg/kg/injection, schedule: Q04DX002 (ip), vehicle: saline with Tween-80
[4] = dose: 400.0 mg/kg/injection, schedule: Q04DX002 (ip), vehicle: saline with Tween-80
[5] = dose: 100.0 mg/kg/injection, schedule: Q04DX002 (ip), vehicle: saline
[6] = dose: 200.0 mg/kg/injection, schedule: Q04DX002 (ip), vehicle: saline
[7] = dose: 100.0 mg/kg/injection, schedule: Q01DX001 (ip), vehicle: carboxymethylcellulose (CMC)
[8] = dose: 200.0 mg/kg/injection, schedule: Q01DX001 (ip), vehicle: carboxymethylcellulose (CMC)
[9] = dose: 400.0 mg/kg/injection, schedule: Q01DX001 (ip), vehicle: carboxymethylcellulose (CMC)
[10] = dose: 200.0 mg/kg/injection, schedule: Q01DX009 (ip), vehicle: saline with Tween-80
[11] = dose: 400.0 mg/kg/injection, schedule: Q01DX009 (ip), vehicle: saline with Tween-80
[12] = dose: 100.0 mg/kg/injection, schedule: Q01DX001 (ip), vehicle: saline with Tween-80
[13] = dose: 100.0 mg/kg/injection, schedule: Q04DX003 (ip), vehicle: saline with Tween-80
[14] = dose: 200.0 mg/kg/injection, schedule: Q01DX001 (ip), vehicle: saline with Tween-80
[15] = dose: 200.0 mg/kg/injection, schedule: Q04DX003 (ip), vehicle: saline with Tween-80
[16] = dose: 400.0 mg/kg/injection, schedule: Q01DX001 (ip), vehicle: saline with Tween-80
[17] = dose: 400.0 mg/kg/injection, schedule: Q04DX003 (ip), vehicle: saline with Tween-80
[18] = dose: 75.0 mg/kg/injection, schedule: Q01DX001 (ip), vehicle: saline
[19] = dose: 150.0 mg/kg/injection, schedule: Q01DX001 (ip), vehicle: saline
[20] = dose: 300.0 mg/kg/injection, schedule: Q01DX001 (ip), vehicle: saline

Compound: CC12C=CC(=O)C=C1CCC1C2C(O)CC2(C)C1CCC2(O)C(=O)CSc1ncnc2nc[nH]c12 (centres undefined)
- T/C (dose: 60.0 mg/kg/injection, schedule: Q01DX015 (ip), vehicle: saline): 92 % of control
- T/C (dose: 90.0 mg/kg/injection, schedule: Q01DX015 (ip), vehicle: saline): 100 % of control
- T/C (dose: 100.0 mg/kg/injection, schedule: Q01DX001 (sc), vehicle: steriod suspending solution): 112 % of control
- T/C (dose: 135.0 mg/kg/injection, schedule: Q01DX015 (ip), vehicle: saline): 92 % of control
- T/C (dose: 200.0 mg/kg/injection, schedule: Q01DX001 (sc), vehicle: steriod suspending solution): 112 % of control
- T/C (dose: 200.0 mg/kg/injection, schedule: Q01DX015 (ip), vehicle: saline): 92 % of control
- T/C (dose: 400.0 mg/kg/injection, schedule: Q01DX001 (sc), vehicle: steriod suspending solution): 97 % of control

Compound: C[N+](C)(C)Cc1ccco1
- T/C (dose: 25.0 mg/kg/injection, schedule: Q01DX009 (ip), vehicle: saline): 103 % of control
- T/C (dose: 50.0 mg/kg/injection, schedule: Q01DX009 (ip), vehicle: saline): 93 % of control
- T/C (dose: 100.0 mg/kg/injection, schedule: Q01DX009 (ip), vehicle: saline): 95 % of control and 90 % of control

Compound: Nc1nc(Cl)[nH]c1-c1ncn[nH]1
- T/C (dose: 100.0 mg/kg/injection, schedule: Q01DX001 (ip), vehicle: saline): 92 % of control
- T/C (dose: 200.0 mg/kg/injection, schedule: Q01DX001 (ip), vehicle: saline): 106 % of control

Compound: CCOc1ccc(-c2nnc(Nc3ccc(S(=O)(=O)N4CCCCC4)cc3)s2)cc1
- T/C [1]: 87 % of control
- T/C [2]: 96 % of control
- T/C [3]: 93 % of control
- T/C [4]: 90 % of control

Compound: CCCCOC1CCS(=O)(=O)C1 (centres undefined)
- T/C (dose: 100.0 mg/kg/injection, schedule: Q04DX003 (ip), vehicle: other): 101 % of control
- T/C (dose: 200.0 mg/kg/injection, schedule: Q04DX003 (ip), vehicle: other): 101 % of control
- T/C (dose: 400.0 mg/kg/injection, schedule: Q04DX003 (ip), vehicle: other): 94 % of control

Compound: CCOC(=O)N(OCc1ccccc1)P(=O)(N1CC1(C)C)N1CC1(C)C (centres undefined)
- T/C [5]: 158 % of control
- T/C [6]: 153 % of control

Compound: c1ccc(C2CO2)cc1 (centres undefined)
- T/C (dose: 25.0 mg/kg/injection, schedule: Q04DX003 (ip), vehicle: Klucel (hydroxypropylcellulose) (HPC)): 97 % of control
- T/C (dose: 50.0 mg/kg/injection, schedule: Q01DX001 (ip), vehicle: carboxymethylcellulose (CMC)): 95 % of control
- T/C (dose: 50.0 mg/kg/injection, schedule: Q04DX003 (ip), vehicle: Klucel (hydroxypropylcellulose) (HPC)): 90 % of control
- T/C [7]: 101 % of control
- T/C (dose: 100.0 mg/kg/injection, schedule: Q04DX003 (ip), vehicle: Klucel (hydroxypropylcellulose) (HPC)): 98 % of control
- T/C [8]: 97 % of control
- T/C [9]: 97 % of control

Compound: CN(C=O)c1ccc(C(=O)O)cc1
- T/C [7]: 123 % of control
- T/C [8]: 96 % of control
- T/C [9]: 94 % of control

Compound: CC1C(=O)CC(C)(C)CC1=O
- T/C [1]: 105 % of control
- T/C [10]: 109 % of control
- T/C [11]: 104 % of control

Compound: COc1ccc([N+](=O)[O-])cc1NS(=O)(=O)c1cccc([N+](=O)[O-])c1
- T/C [12]: 95 % of control
- T/C [1]: 89 % of control and 92 % of control
- T/C [2]: 97 % of control and 101 % of control
- T/C [13]: 97 % of control
- T/C [14]: 91 % of control
- T/C [10]: 92 % of control
- T/C [3]: 95 % of control and 97 % of control
- T/C [15]: 97 % of control
- T/C [16]: 91 % of control
- T/C [11]: 106 % of control
- T/C [4]: 94 % of control and 101 % of control
- T/C [17]: 90 % of control

Compound: CCC[CH2][Sn](=[O])[CH2]CCC
- T/C (dose: 1.5 mg/kg/injection, schedule: Q01DX001 (ip), vehicle: saline with Tween-80): 90 % of control
- T/C (dose: 3.0 mg/kg/injection, schedule: Q01DX001 (ip), vehicle: saline with Tween-80): 100 % of control
- T/C (dose: 6.0 mg/kg/injection, schedule: Q01DX001 (ip), vehicle: saline with Tween-80): 107 % of control

Compound: O=c1c2ccccc2[nH]c2cc(-n3nnc4ccccc4c3=O)ccc12
- T/C [18]: 88 % of control
- T/C [19]: 88 % of control
- T/C [20]: 98 % of control

Compound: NCCCCC(NC(=O)OCc1ccccc1)C(=O)CCl (centres undefined)
- T/C (dose: 10.0 mg/kg/injection, schedule: Q04DX002 (ip), vehicle: saline): 109 % of control
- T/C (dose: 20.0 mg/kg/injection, schedule: Q04DX002 (ip), vehicle: saline): 95 % of control

Compound: COC(=O)[C@]1(C)CCC[C@]2(C)c3ccc(C(C)C)cc3CC[C@@H]12
- T/C (dose: 0.5 mg/kg/injection, schedule: Q01DX009 (ip), vehicle: Klucel (hydroxypropylcellulose) (HPC)): 100 % of control
- T/C (dose: 0.5 mg/kg/injection, schedule: Q04DX003 (ip), vehicle: Klucel (hydroxypropylcellulose) (HPC)): 107 % of control
- T/C (dose: 1.0 mg/kg/injection, schedule: Q01DX009 (ip), vehicle: Klucel (hydroxypropylcellulose) (HPC)): 111 % of control
- T/C (dose: 1.0 mg/kg/injection, schedule: Q04DX003 (ip), vehicle: Klucel (hydroxypropylcellulose) (HPC)): 93 % of control
- T/C (dose: 2.0 mg/kg/injection, schedule: Q01DX009 (ip), vehicle: Klucel (hydroxypropylcellulose) (HPC)): 98 % of control
- T/C (dose: 2.0 mg/kg/injection, schedule: Q04DX003 (ip), vehicle: Klucel (hydroxypropylcellulose) (HPC)): 98 % of control
- T/C [13]: 96 % of control
- T/C [15]: 107 % of control
- T/C [17]: 102 % of control

Compound: CCOC(=O)c1c(C)[nH]c(C)cc1=O
- T/C [12]: 95 % of control
- T/C [1]: 98 % of control
- T/C [14]: 95 % of control
- T/C [10]: 102 % of control
- T/C [16]: 90 % of control
- T/C [11]: 95 % of control

Compound: c1ccc(C(CCCCC(c2ccccc2)c2ccccc2)c2ccccc2)cc1
- T/C [18]: 94 % of control
- T/C [19]: 92 % of control
- T/C [20]: 93 % of control

Compound: CC(C)(C)NC(=O)NCCCN1CCOCC1
- T/C [5]: 96 % of control
- T/C [6]: 90 % of control
- T/C (dose: 400.0 mg/kg/injection, schedule: Q04DX002 (ip), vehicle: saline): 96 % of control

Compound: CCCCCCCCCCCCCC[n+]1ccccc1
- T/C (dose: 0.25 mg/kg/injection, schedule: Q04DX003 (ip), vehicle: saline): 96 % of control
- T/C (dose: 0.5 mg/kg/injection, schedule: Q01DX001 (ip), vehicle: saline): 97 % of control
- T/C (dose: 0.5 mg/kg/injection, schedule: Q04DX003 (ip), vehicle: saline): 94 % of control
- T/C (dose: 1.0 mg/kg/injection, schedule: Q01DX001 (ip), vehicle: saline): 105 % of control
- T/C (dose: 1.0 mg/kg/injection, schedule: Q04DX003 (ip), vehicle: saline): 96 % of control
- T/C (dose: 2.0 mg/kg/injection, schedule: Q01DX001 (ip), vehicle: saline): 112 % of control
- T/C (dose: 2.0 mg/kg/injection, schedule: Q04DX003 (ip), vehicle: saline): 96 % of control
- T/C (dose: 4.0 mg/kg/injection, schedule: Q04DX003 (ip), vehicle: saline): 109 % of control
- T/C (dose: 62.5 micrograms/kg/injection, schedule: Q01DX009 (ip), vehicle: saline): 119 % of control
- T/C (dose: 125.0 micrograms/kg/injection, schedule: Q01DX009 (ip), vehicle: saline): 100 % of control
- T/C (dose: 250.0 micrograms/kg/injection, schedule: Q01DX009 (ip), vehicle: saline): 113 % of control
- T/C (dose: 500.0 micrograms/kg/injection, schedule: Q01DX009 (ip), vehicle: saline): 105 % of control
- T/C (dose: 1000.0 micrograms/kg/injection, schedule: Q01DX009 (ip), vehicle: saline): 110 % of control

Compound: C=CCC(CCCCCCCCCCC)C(=O)O (centres undefined)
- T/C [12]: 111 % of control
- T/C [14]: 97 % of control
- T/C [16]: 90 % of control

Compound: CC#CC(=O)c1ccccc1
- T/C (dose: 7.5 mg/kg/injection, schedule: Q04DX003 (ip), vehicle: saline): 97 % of control
- T/C (dose: 15.0 mg/kg/injection, schedule: Q04DX003 (ip), vehicle: saline): 94 % of control
- T/C (dose: 30.0 mg/kg/injection, schedule: Q04DX003 (ip), vehicle: saline): 95 % of control
